Earlier results, collected in patent publication US20020064550A1, “Edible candy compositions and methods of using same” (AkPharma, Inc., priority 2000, published 2002).
Like-named read-outs stand apart in the source and are kept apart here.

Key:
[1] = test system: dental caries; conditions: sugar-content diets of animals
[2] = test system: dental caries; conditions: human children
[3] = test system: symptoms of bladder irritants; conditions: 200 reported patients; calcium glycerophosphate taken with foods; 79.4% without calcium glycerophosphate

1,2,3-propanetriol, mono(dihydrogen phosphate) calcium salt (1:1) [calcium glycerophosphate]
dental caries reduction [1]: confirm dental caries reduction
dental caries reduction [2]: fail to confirm same
over-all symptoms of bladder irritants [3]: 14.6%
